The values that follow come from patent US20170037028A1 (BAYER PHARMA AKTIENGESELLSCHAFT, priority 2013, published 2017).

In one experiment the target is T1, GLUT1 (Homo sapiens, UniProt P11166).
T1 sequence (P11166 1-492): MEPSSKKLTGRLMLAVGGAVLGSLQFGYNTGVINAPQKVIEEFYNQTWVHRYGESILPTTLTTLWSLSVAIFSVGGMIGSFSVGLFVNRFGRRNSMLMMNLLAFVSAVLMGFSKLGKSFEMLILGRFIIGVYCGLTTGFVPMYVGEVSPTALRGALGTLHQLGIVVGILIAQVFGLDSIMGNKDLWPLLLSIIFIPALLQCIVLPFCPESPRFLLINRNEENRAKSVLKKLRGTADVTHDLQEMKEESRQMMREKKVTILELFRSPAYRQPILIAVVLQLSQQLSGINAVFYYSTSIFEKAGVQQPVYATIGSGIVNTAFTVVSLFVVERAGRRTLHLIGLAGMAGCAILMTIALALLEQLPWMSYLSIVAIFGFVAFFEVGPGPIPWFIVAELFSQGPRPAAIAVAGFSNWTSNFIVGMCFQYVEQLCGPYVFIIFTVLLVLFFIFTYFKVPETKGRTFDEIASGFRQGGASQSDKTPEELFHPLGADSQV
Kind of experiment: Indirect measurement of GLUT1 activity by quantification of intracellular ATP levels (glucose induced ATP increase). It is filed as cell-based. Also on record: endogenous in cells; host or cells: DLD1 or CHO-K1. To be noted: DLD1 cells; 0.1 mM glucose, 1 μM Rotenone, 15 min; CellTiter-Glo ATP readout; IC50 values standardized to cytochalasin B IC50 values; read-out: IC50 regarding glucose induced ATP increase (GLUT1 inhibition). In a few lines: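 DLD1 or CHO-K1 cells were starved overnight in glucose-free medium with 1% FCS, then combined with an oxidative phosphorylation inhibitor. GLUT1 activity was read as glucose-induced ATP increase, GLUT2 as fructose-induced. Intracellular ATP was quantified by CellTiter-Glo luminescence.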
On the technique in general: ATP-based viability assays read luminescence as a measure of living cells.
The term IC50 denotes the concentration needed to halve the response being measured. `Cc1c(NC(=O)c2cc(C(N)=O)nc3cc(F)ccc23)c(C(F)(F)F)nn1Cc1cccc(C#N)c1` [Example 1578]: the half-maximal inhibitory concentration (IC50) was found to be 25 nM.

The same experiment, now with this note: read-out: IC50 regarding glucose induced ATP increase (GLUT1 inhibition).
On to `Cc1nn(Cc2cnn(C)c2C)c(C)c1NC(=O)c1cc(C(N)=O)nc2ccccc12` [Example 1567], for which the half-inhibitory concentration (IC50) came out at 84.4 nM.

Regarding `Cc1nc(Cn2nc(C)c(NC(=O)c3cc(C(N)=O)nc4ccccc34)c2C)cs1` [Example 1568], the concentration for half-maximal inhibition (IC50) was found to be 27.3 nM.

In the case of `Cc1nn(Cc2ccn(C)n2)c(C)c1NC(=O)c1cc(C(N)=O)nc2ccccc12` [Example 1569], the 50% inhibitory concentration (IC50) was determined as 67.5 nM.

For `CCc1noc(Cn2nc(C)c(NC(=O)c3cc(C(F)(F)F)nc4ccc(Br)cc34)c2C)n1` [Example 1570], the IC50 was determined as 48.2 nM.

For `Cc1c(NC(=O)c2cc(S(N)(=O)=O)nc3ccccc23)c(C(F)(F)F)nn1Cc1ccc(C#N)cc1` [Example 1572], the IC50 is 219 nM.

As to `Cc1nn(Cc2ccc(C#N)cc2)c(C)c1NC(=O)c1cc(S(N)(=O)=O)nc2ccccc12` [Example 1573], the IC50 is 419 nM.

In the case of `CNS(=O)(=O)c1cc(C(=O)Nc2c(C(F)(F)F)nn(Cc3ccc(C#N)cc3)c2C)c2ccccc2n1` [Example 1574], the IC50 was found to be 49.3 nM.

For `CNS(=O)(=O)c1cc(C(=O)Nc2c(C)nn(Cc3ccc(C#N)cc3)c2C)c2ccccc2n1` [Example 1575], the IC50 was 37.9 nM.

Take `Cc1c(NC(=O)c2cc(S(=O)(=O)N(C)C)nc3ccccc23)c(C(F)(F)F)nn1Cc1ccc(C#N)cc1` [Example 1576]: the half-inhibitory concentration (IC50) was found to be 20.6 nM.

On to `Cc1nn(Cc2ccc(C#N)cc2)c(C)c1NC(=O)c1cc(S(=O)(=O)N(C)C)nc2ccccc12` [Example 1577], for which the IC50 is 9.7 nM.

On to `Cc1c(NC(=O)c2cc(C(N)=O)nc3ccccc23)c(C(F)(F)F)nn1Cc1cccc(C#N)c1` [Example 1579], for which the IC50 was 23.4 nM.

In the case of `Cc1c(NC(=O)c2cc(C(N)=O)nc3cc(F)c(Cl)cc23)c(C(F)(F)F)nn1Cc1cccc(C#N)c1` [Example 1580], the 50% inhibitory concentration (IC50) turned out to be 1.8 nM.

Turning to `Cc1c(NC(=O)c2cc(C(N)=O)nc3cccc(F)c23)c(C(F)(F)F)nn1Cc1cccc(C#N)c1` [Example 1581], the concentration for half-maximal inhibition (IC50) was determined as 26.9 nM.

For the molecule `COCc1ccc(Cn2nc(C)c(NC(=O)c3cc(C(N)=O)nc4cc(F)ccc34)c2C)cc1` [Example 1582], the IC50 was 3.9 nM.

As to `Cc1nn(Cc2cccc(OC(F)(F)F)c2)c(C)c1NC(=O)c1cc(C(N)=O)nc2cc(F)c(Cl)cc12` [Example 1583], the IC50 came out at 11.4 nM.

As for `Cc1c(NC(=O)c2cc(C(N)=O)nc3cccc(F)c23)c(C(F)(F)F)nn1Cc1cccc(OC(F)(F)F)c1` [Example 1584], the IC50 turned out to be 544 nM.

Take `Cc1nn(Cc2cccc(OC(F)(F)F)c2)c(C)c1NC(=O)c1cc(C(N)=O)nc2ccccc12` [Example 1585]: the IC50 amounted to 45.5 nM.

`Cc1nn(Cc2cccc(OC(F)(F)F)c2)c(C)c1NC(=O)c1cc(C(N)=O)nc2cc(F)ccc12` [Example 1586]: the IC50 came to 36.9 nM.

As to `Cc1nn(Cc2cccc(OC(F)(F)F)c2)c(C)c1NC(=O)c1cc(C(N)=O)nc2cccc(F)c12` [Example 1587], the IC50 was determined as 41.8 nM.

In the case of `COc1ccccc1Cn1nc(C(F)(F)F)c(NC(=O)c2cc(C(N)=O)nc3cc(F)ccc23)c1C` [Example 1588], the concentration for half-maximal inhibition (IC50) came out at 175 nM.

For the molecule `Cc1c(NC(=O)c2cc(C(N)=O)nc3cc(F)c(Cl)cc23)c(C(F)(F)F)nn1Cc1ccc(C(F)(F)F)cc1` [Example 1589], the 50% inhibitory concentration (IC50) was determined as 13.9 nM.

Turning to `Cc1c(NC(=O)c2cc(C(N)=O)nc3cc(F)ccc23)c(C(F)(F)F)nn1Cc1ccc(C(F)(F)F)cc1` [Example 1590], the IC50 worked out at 9.8 nM.

For `Cc1c(NC(=O)c2cc(C(N)=O)nc3cccc(F)c23)c(C(F)(F)F)nn1Cc1ccc(C(F)(F)F)cc1` [Example 1591], the IC50 turned out to be 16.6 nM.

For `Cc1c(NC(=O)c2cc(C(N)=O)nc3ccccc23)c(C(F)(F)F)nn1Cc1ccc(CC#N)cc1` [Example 1592], the concentration for half-maximal inhibition (IC50) is 1.3 nM.

In the case of `Cc1c(NC(=O)c2cc(C(N)=O)nc3cccc(F)c23)c(C(F)(F)F)nn1Cc1ccc(CC#N)cc1` [Example 1593], the concentration for half-maximal inhibition (IC50) amounted to 1.3 nM.

In the case of `Cc1c(NC(=O)c2cc(C(N)=O)nc3cc(F)c(Cl)cc23)c(C(F)(F)F)nn1Cc1ccc(CC#N)cc1` [Example 1594], the concentration for half-maximal inhibition (IC50) was determined as 1.1 nM.

On to `Cc1c(NC(=O)c2cc(C(N)=O)nc3ccc(Br)cc23)c(C(F)(F)F)nn1Cc1ccc(CC#N)cc1` [Example 1595], for which the IC50 was 1.6 nM.

As to `Cc1c(NC(=O)c2cc(C(N)=O)nc3cc(F)ccc23)c(C(F)(F)F)nn1Cc1ccc(C(C)(C)C#N)cc1` [Example 1596], the IC50 is 67.2 nM.

As to `Cc1c(NC(=O)c2cc(C(N)=O)nc3cccc(F)c23)c(C(F)(F)F)nn1Cc1ccc(C(C)(C)C#N)cc1` [Example 1597], the IC50 is 89.9 nM.

Turning to `Cc1nn(Cc2ccc(C(F)(F)F)cc2)c(C)c1NC(=O)c1cc(C(N)=O)nc2cc(F)c(Cl)cc12` [Example 1598], the concentration for half-maximal inhibition (IC50) is 1.4 nM.

In the case of `Cc1nn(Cc2ccc(C(F)(F)F)cc2)c(C)c1NC(=O)c1cc(C(N)=O)nc2cc(F)ccc12` [Example 1599], the IC50 was found to be 6.5 nM.

`Cc1nn(Cc2ccc(C(F)(F)F)cc2)c(C)c1NC(=O)c1cc(C(N)=O)nc2cccc(F)c12` [Example 1600]: the 50% inhibitory concentration (IC50) was determined as 3.5 nM.

Turning to `Cc1c(NC(=O)c2cc(C(N)=O)nc3cc(F)ccc23)c(C(F)(F)F)nn1Cc1cccc(C(N)=O)c1` [Example 1601], the IC50 stood at 24.6 nM.

As to `Cc1c(NC(=O)c2cc(C(N)=O)nc3cccc(F)c23)c(C(F)(F)F)nn1Cc1cccc(C(N)=O)c1` [Example 1602], the half-inhibitory concentration (IC50) came out at 29.3 nM.

With `Cc1c(NC(=O)c2cc(C(N)=O)nc3cc(F)c(Cl)cc23)c(C(F)(F)F)nn1Cc1cccc(C(N)=O)c1` [Example 1603], the half-inhibitory concentration (IC50) was 5.8 nM.

For the molecule `CC(=O)c1ccc(Cn2nc(C(F)(F)F)c(NC(=O)c3cc(C(N)=O)nc4ccccc34)c2C)cc1` [Example 1604], the IC50 was 4.7 nM.

As for `CC(=O)c1ccc(Cn2nc(C(F)(F)F)c(NC(=O)c3cc(C(N)=O)nc4cc(F)ccc34)c2C)cc1` [Example 1605], the IC50 stood at 2.6 nM.

Turning to `CC(=O)c1ccc(Cn2nc(C(F)(F)F)c(NC(=O)c3cc(C(N)=O)nc4cccc(F)c34)c2C)cc1` [Example 1606], the IC50 stood at 2.4 nM.

For the molecule `CC(=O)c1ccc(Cn2nc(C)c(NC(=O)c3cc(C(N)=O)nc4ccccc34)c2C)cc1` [Example 1607], the concentration for half-maximal inhibition (IC50) is 3.5 nM.

In the case of `CC(=O)c1ccc(Cn2nc(C)c(NC(=O)c3cc(C(N)=O)nc4cc(F)ccc34)c2C)cc1` [Example 1608], the half-maximal inhibitory concentration (IC50) came out at 4 nM.

Take `CC(=O)c1ccc(Cn2nc(C)c(NC(=O)c3cc(C(N)=O)nc4cccc(F)c34)c2C)cc1` [Example 1609]: the IC50 was 1.2 nM.

With `Cc1ccc2c(C(=O)Nc3c(C(F)(F)F)nn(Cc4ccc(C#N)cc4)c3C)cc(C(N)=O)nc2c1` [Example 1610], the half-inhibitory concentration (IC50) was found to be 8.4 nM.

With `Cc1c(NC(=O)c2cc(C(N)=O)nc3cc(F)c(Br)cc23)c(C(F)(F)F)nn1Cc1ccc(C#N)cc1` [Example 1611], the IC50 stood at 0.8 nM.

As to `Cc1nn(Cc2ccc(CC#N)cc2)c(C)c1NC(=O)c1cc(C(N)=O)nc2cccc(F)c12` [Example 1612], the IC50 was found to be 2.4 nM.

For the molecule `Cc1nn(Cc2ccc(CC#N)cc2)c(C)c1NC(=O)c1cc(C(N)=O)nc2cc(F)ccc12` [Example 1613], the half-inhibitory concentration (IC50) was 0.7 nM.

In the case of `Cc1nn(Cc2ccc(CC#N)cc2)c(C)c1NC(=O)c1cc(C(N)=O)nc2ccccc12` [Example 1614], the half-maximal inhibitory concentration (IC50) stood at 0.8 nM.
